Where two headings read alike, the source gives them in different places.
Tests used:
[1] = tested on: human dermal fibroblasts; test: Cellular proliferation of human dermal fibroblasts (total DNA content and [3H]-thymidine incorporation); assay type: cell-based; settings: person
From the text: Manganese compositions induce cellular proliferation.

[2] = tested on: elastin mRNA; test: Northern blot analysis of elastin mRNA levels in human aortic smooth muscle cells; assay type: cell-based
Description: (§1) Smooth muscle cells were isolated in the following manner porcine thoracic aortas and coronary arteries were dissected from young pigs obtained from local slaughterhouse. Passage two of human aortic smooth muscle cells from a normal subject was purchased from Clonetics Inc. (San Diego, Calif.). Arterial tissues were diced and explanted in a-MEM (modified Eagle's medium) supplemented with 10% FBS, 25 mM HEPES, L-glutamine, and […]. Tissue samples were diced and cells isolated by collagenase and elastase digestion as previously described.
(§2) Porcine thoracic aortas and coronary arteries were dissected from young pigs obtained from local slaughterhouse. Passage two of human aortic smooth muscle cells from a normal subject was purchased from Clonetics Inc. (San Diego, Calif.). Arterial tissues were diced and explanted in a-MEM (modified Eagle's medium) supplemented with 10% FBS, 25 mM HEPES, L-glutamine, and […]. Tissue samples were diced and cells isolated by collagenase and elastase digestion as previously described. Cells were maintained in a-MEM supplemented with 5% FBS and were routinely passaged by trypsinization. All the experiments were performed using SMC at passage 2-5. […] Aortic and coronary artery SMC's were plated at the initial density 50,000 dish, either directly on plastic or on coverslips, and maintained for 1-2 days until confluency. Cultures were then divided into experimental groups and maintained in the presence and absence of experimental reagents for 7 days. Fresh media were added at days 3 and 5.

[3] = tested on: human dermal fibroblast cultures; test: Immunohistochemical analysis of elastin synthesis in human dermal fibroblast cultures; assay type: cell-based; settings: for synthesis of elastin (elastic fibers detected by immunocytochemistry): all concentrations 0.5 μM-2.0 μM, fibroblasts from various aged subjects; for deposition of extracellular matrix components, elastin and collagen type I: human dermal fibroblast cultures
From the text: Refer to FIG. 1, which illustrates both the elastic fibers detected by immunocytochemistry and the morphometric analysis of elastic fibers. MnCl2 and Mn-PCA were introduced into the fibroblasts derived from the various aged subjects over various concentrations.

[4] = tested on: human aortic smooth muscle cells; test: Metabolic labeling of newly synthesized insoluble elastin by human aortic smooth muscle cells; assay type: cell-based
Description: as §1
as §2, with “Cultures were then divided into experimental groups and maintained in the presence and absence of experimental reagents for 7 days. Fresh media were added at days 3 and 5.” left out

[5] = tested on: human dermal fibroblast cultures; settings: immunohistochemistry, versus control
Description: In some experiments the serum free medium was also used.
The above prepared fibroblasts and smooth muscle cells were cultured in the presence or absence of (0.5-5 μM) of a manganese salt. Deposition of extracellular matrix components, elastin and collagen type I was assessed in 5-10 days old cultures by immunohistochemistry with a panel of specific antibodies.

[6] = tested on: normal human skin fibroblasts; test: Quantitative assay of insoluble elastin ([3H]-valine metabolic labeling) in fibroblast cultures; assay type: cell-based; settings: for reversal of the inhibitory effect of 200 μM iron treatment on elastin deposition: antioxidant applied with 200 μM of iron
[7] = tested on: elastin mRNA; test: One-step RT-PCR of elastin and β-actin mRNA
Description: Total RNA was extracted using the RNeasy Mini Kit, according to manufacturers instructions, and 1 μM of total RNA was added to each one step RT-PCR (Qiagen OneStep RT-PCR Kit) and reactions were set up according to manufacturers instructions in a total volume of 25 μl. The reverse transcription step was performed for elastin and β-actin reactions at 50 ° C. for 30 minutes followed by 15 minutes at 95 ° C.
5 μl samples of the elastin and β-actin PCR products from each reaction were ran on a 2% agarose gel and post-stained with ethidium bromide. The amount of elastin mRNA was standardized relative to the amount of β-actin mRNA.

[8] = tested on: human skin; settings: 10 μM MnSO4 or 20 μM FAC, 7 days; for elastic fibers (Movat's Pentachrome, ×400): person
From the text: Materials and Methods. Organ cultures of explants were derived from surgical biopsies of human skin. […] All organ cultures were fixed in 1% buffered formalin and their transversal histological sections were stained with Movat pentachrome method to visualize major components of extracellular matrix, including elastic fibers.

[9] = tested on: normal human skin fibroblasts; settings: 3 hours
Description: Assays of Intracellular ROS levels. […] This probe passively diffuses into the cell interior and only upon oxidation it releases a fluorescent product that can be visualized under fluorescent microscope or captured by flow cytophotometry, when it is excited at 480 nm. To measure intracellular ROS production normal human skin fibroblasts were plated on glass coverslips in 35 mm dishes (50,000 cells/dish) and grown to confluency. The cells were then washed with PBS and incubated with or without 10 μM of CM-H2DCFDA for 30 minutes in fresh media. The cells were then washed again in PBS and incubated with new media in the presence or absence of FAC (2-400 μM) for 3 additional hours. The cells were then washed twice with PBS before being mounted to the glass slides and the images were captured under a fluorescent microscope under identical parameters of contrast and brightness.
In addition, the quantification of this reaction was performed by flow cytometry (λ excitation 480 nm; λ emission 520 nm). Quadruplicate cultures of fibroblasts were preincubated with CM-H2DCFDA and maintained in the presence or absence of FAC as described above. […] They were then collected by centrifugation (4° C., 1000 RPM for 3 minutes), washed in cold PBS and fixed with 4% formaldehyde for 10 minutes in the dark and analyzed by flow cytometry (FACSCalibur, Beckton Dickinson).

[10] = tested on: serine proteinases; settings: 2-200 μM iron
[11] = tested on: elastin mRNA; settings: 60 μM DRB
Description: (§3) Quantitative TaqMan RT-PCR. […] In order to assess the effect of iron on elastin mRNA stability parallel quadruplicate cultures were grown to confluency in 100 mm dishes. […] The reverse transcriptase reaction was performed using 1.5 μg of total RNA, oligo(dT)'s and the SuperScript First-Strand synthesis system (Invitrogen Life Technologies) according to manufacturer's instructions.
(§4) Elastin mRNA levels was measured by real-time quantitative PCR method performed on the ABI PRISM 7700 Sequence Detection System (Applied Biosystems, Foster City, Calif.). For each treatment two distinct amplifications were carried out in parallel in order to amplify elastin cDNA and GAPDH cDNA. The amplification reactions were performed in 25 μl volumes containing 30 ng of cDNA per treatment in triplicate, 12.5 μl of 2× TaqMan Universal PCR Master Mix (Applied Biosystems), and 1.25 μl of 20× Assays-on-Demand Gene Expression probe for elastin (Applied Biosystems) or TaqMan GAPDH probe (Applied Biosystems). Elastin mRNA levels from each treatment was normalized to the corresponding amount of GAPDH mRNA levels. Water controls and samples without PCR mixtures were set up to eliminate the possibility of significant DNA contamination. Final results were expressed as the mean of two independent experiments.
Since steady-state mRNA levels reflect the balance between transcription efficiency and message decay, we further studied whether fluctuations in iron concentration may affect elastin mRNA stability. […] At indicated time points total RNA was extracted and subjected to quantitative TaqMan RT-PCR analysis. The results are expressed as the mean±SD from two separate experiments conducted in quadruplicate cultures.

[12] = tested on: normal human skin fibroblasts
Description: Assessment of Cell Proliferation. Normal human skin fibroblasts were suspended in DMEM containing 10% FBS and plated in 35 mm culture dishes (100,000 cells/dish) in quadruplicates. […] These cultures were then washed in PBS and treated with cold 5% trichloroacetic acid twice for 10 minutes at 4° C. For 30 minutes, 0.5 ml of 0.3 N NaOH was added to all dishes, and 200 μl aliquots of each culture were mixed with scintillation fluid and counted.

[13] = tested on: elastin mRNA; settings: 24 hours
Description: (§5) The intensity of elastin message signal detected by Northern blotting was assessed by densitometry after normalization to GAPDH message levels and the corresponding values are shown in the bar graph in arbitrary units. Elastin mRNA levels assessed by TaqMan real time PCR analysis were normalized to the corresponding levels of GAPDH mRNA and expressed as a percentage of untreated control values.

[14] = tested on: elastin mRNA
Description: as §3, §4, §5

[15] = tested on: normal human skin fibroblasts; remark: listed apart in the source
Description: Normal human skin fibroblasts were grown to confluency in 35 mm culture dishes (100,000 cells/dish) in quadruplicates. Then, 2 μCi of [^3H]-valine/ml of fresh media was added to each dish, along with or without 2, 20, 100, 200 μM of FAC. […] The cells were extensively washed with PBS and the soluble proteins present in the intracellular compartments were extracted overnight at 4° C. with 0.1 M acetic acid in the presence of proteinase inhibitors. After centrifugation the supernatants were pre-cleaned by 30 minutes incubation with 50 p. […] The protein A-containing beads were sedimented by centrifugation; washed with immunoprecipitation buffer, mixed with scintillation fluid and counted. […] The resulting pellets containing the insoluble elastin were then solubilized by boiling in 200 μl of 5.7 N HCl for 1 hour, and the aliquots were mixed in scintillation fluid and counted. […] Final results reflecting amounts of metabolically labeled insoluble elastin in individual cultures were normalized per their DNA content and expressed as CPM/1 DNA. […] The conditioned media was then removed and the cell layers were washed and incorporation of [^3H]-valine into the insoluble elastin was assessed as described above.

[16] = tested on: normal human skin fibroblasts; settings: for elastin deposition (immunostaining): 3 days
[17] = tested on: normal human skin fibroblasts; remark: listed apart in the source
Description: Since the net production of elastic fibers depend on the coordinated expression of multiple factors, the expression of three major factors facilitating elasogenesis by immunoflourecent microscopy after exposure of normal human skin fibroblasts to low (20 μM) and high (200 μM) iron concentrations was tested.

[18] = equimolar (20 μM) ferric iron and DFO

**Q.** Which dermal fibroblast proliferation [1] does the source give for “manganese salt of L-Pyrrolidone Carboxylic Acid [Mn-PCA]” here?
**A.** stimulate dermal fibroblast proliferation

**Q.** What about the “more elastin transcription over the control” value [2] of the same compound?
**A.** ~66%

**Q.** And the “transcription of the elastin gene (elastin mRNA levels)” value [2]?
**A.** can induce transcription of the elastin gene

**Q.** What about the “synthesis of elastin (elastic fibers detected by immunocytochemistry)” value [3] of the same compound?
**A.** induce synthesis of elastin

**Q.** And the “deposition of extracellular matrix components, elastin and collagen type I” value [3]?
**A.** induced

**Q.** What about the “increase in elastin synthesis over the control” value [4] of the same compound?
**A.** two-fold

**Q.** What about the “deposition of collagen type I” value [5] of the same compound?
**A.** increased deposition in collagen type I

**Q.** Which “reversal of the inhibitory effect of 200 μM iron treatment on elastin deposition” value [6] does the source give for `CC1(C)CC(O)CC(C)(C)N1[O]` [Tempol] here?
**A.** not observed

**Q.** How did the “elastin mRNA levels” value ([7]; 20 μM of DFO, compared to untreated control) turn out when `CC(=O)N(O)CCCCCNC(=O)CCC(=O)N(O)CCCCCNC(=O)CCC(=O)N(O)CCCCCN` [DFO, desferrioxamine] was run?
**A.** significantly reduced

**Q.** And the “iron induced increase in elastin mRNA levels” value [7, 18]?
**A.** abolished the iron induced increase

**Q.** What about the “iron induced increase in elastin deposition” value [6, 18] of the same compound?
**A.** abolished the iron induced increase

**Q.** How did the “agitation and migration of stratum basale-derived cells with fibroblastic phenotype” value [8] turn out when `O=S(=O)([O-])[O-].[Mn+2]` [MnSO4, manganese sulfate] was run?
**A.** higher than control level of agitation and migration of stratum basale-derived cells with fibroblastic phenotype

**Q.** What about the “infiltrating activated (differentiating) cells (×600)” value [8] of the same compound?
**A.** seem to contain more such activated cells

**Q.** What about the “elastic fibers (Movat's Pentachrome, ×400)” value [8] of the same compound?
**A.** stimulated production of long elastic fibers primarily running perpendicular to the epidermis

**Q.** And the “transcription of the elastin gene (elastin mRNA levels)” value [2]?
**A.** can induce transcription of the elastin gene

**Q.** How did the “reversal of the inhibitory effect of 200 μM iron treatment on elastin deposition” value [6] turn out when catalase was run?
**A.** not observed

**Q.** Which results are given for manganese chloride [MnCl2]?
**A.** transcription of the elastin gene (elastin mRNA levels) [2]: can induce transcription of the elastin gene; synthesis of elastin (elastic fibers detected by immunocytochemistry) [3]: induce synthesis of elastin; deposition of extracellular matrix components, elastin and collagen type I [3]: induced

**Q.** ferric ammonium citrate [FAC] was tested. Which “intracellular ROS production” value ([9]; 2-40 μM of iron) did it give?
**A.** produced the same amount of ROS as untreated controls

**Q.** And the “intracellular ROS production” value ([9]; 100-400 μM iron)?
**A.** dose dependant increase in ROS production

**Q.** And the “elastolytic activity of serine proteinases” value [10]?
**A.** did not stimulate elastolytic activity of serine proteinases

**Q.** And the “agitation and migration of stratum basale-derived cells with fibroblastic phenotype” value [8]?
**A.** higher than control level of agitation and migration of stratum basale-derived cells with fibroblastic phenotype

**Q.** And the “infiltrating activated (differentiating) cells (×600)” value [8]?
**A.** seem to contain more such activated cells

**Q.** What about the “elastic fibers (Movat's Pentachrome, ×400)” value [8] of the same compound?
**A.** induced deposition of shorter elastic fibers primarily running parallel to the epidermis

**Q.** What about the “elastin mRNA half-life” value ([11]; 20 μM iron) of the same compound?
**A.** ~16 h

**Q.** What about the “decrease in elastin mRNA level” value ([11]; 200 μM iron) of the same compound?
**A.** about 2.5 fold

**Q.** And the “elastin mRNA half-life” value ([11]; 200 μM iron)?
**A.** ~6 h

**Q.** What about the “[3H]-thymidine incorporation (proliferation rate)” value ([12]; high doses of iron (100 μM and 200 μM), 72 hours, listed as iron) of the same compound?
**A.** proliferate with a significantly higher rate than untreated cells

**Q.** What about the cellular proliferation rate ([12]; low iron concentrations (lower than 25 μM)) of the same compound?
**A.** did not cause any increase in cellular proliferation rate

**Q.** What about the “elastin mRNA levels (Northern blot, corrected for GAPDH)” value ([13]; 200 μM of iron) of the same compound?
**A.** returned back to control values

**Q.** And the “elastin mRNA levels (Northern blot, corrected for GAPDH)” value ([13]; 2 and 20 μM iron)?
**A.** dose-dependent increase in elastin mRNA levels

**Q.** What about the “increase in elastin mRNA levels” value ([14]; 20 μM of iron, 24 hours) of the same compound?
**A.** ~3 fold

**Q.** What about the “tropoelastin mRNA (real-time RT-PCR)” value ([14]; 200 μM of iron, 24 hours) of the same compound?
**A.** significant reduction in tropoelastin mRNA

**Q.** And the “increase in the elastin mRNA level” value ([14]; low iron concentrations (2-20 μM))?
**A.** 2-3 fold

**Q.** What about the “[3H]-valine-labeled tropoelastin synthesis” value ([15]; 2 and 20 μM iron, 72 hours) of the same compound?
**A.** syntesize more [^3H]-valine-labeled tropoelastin than untreated counterparts

**Q.** And the tropoelastin production ([15]; 100 and 200 μM iron versus 20 μM)?
**A.** lower tropoelastin production as compared to those treated with 20 μM

**Q.** What about the “elastin deposition (immunostaining)” value ([16]; 100 μM iron) of the same compound?
**A.** did not induce better elastin deposition then treatment with 20

**Q.** What about the “elastin deposition (immunostaining)” value ([16]; 200 μM of iron) of the same compound?
**A.** dragged elastin deposition back to the control levels

**Q.** What about the “production of elastic fibers (immunostaining)” value ([16]; 2 and 20 μM of iron, 3-day-long treatment) of the same compound?
**A.** significantly increased the production of elastic fibers over control levels

**Q.** What about the “immunodetectable levels of elastin binding protein (EBP)” value [17] of the same compound?
**A.** not changed

**Q.** And the “immunodetectable levels of fibrillin-1” value [17]?
**A.** not changed

**Q.** And the “immunodetectable levels of lysyl oxidase” value [17]?
**A.** not changed

— patent US9006170B2, “Compositions for elastogenesis and connective tissue treatment” (Human Matrix Sciences, LLC, priority 2004, dated 2015)
